Like-named read-outs stand apart in the source and are kept apart here.
Legend:
Assay type in all cases: cell-based
[1] = system: HS 578T; assay: Human tumor cell line growth assay (SRB); settings: Breast, 48 h; for CC50: read-out: LC50 (the source's name)
[2] = system: HT29; assay: Human tumor cell line growth assay (SRB); settings: Homo sapiens, HT-29; Colon, HT29, 48 h
[3] = Human tumor cell line growth assay (SRB); settings: human, HT29 cells (colon), HT29, 48 h, read-out: LC50
[4] = system: HOP-62; assay: Human tumor cell line growth assay (SRB); settings: Homo sapiens; NSCLC, HOP-62, 48 h
[5] = Human tumor cell line growth assay (SRB); settings: human, HOP-62 cells (NSCLC), HOP-62, 48 h, read-out: LC50
[6] = system: DU-145; assay: Human tumor cell line growth assay (SRB); settings: Prostate, DU-145, 48 h; for CC50: read-out: LC50 (the source's name)
[7] = system: NCI-H226; assay: Human tumor cell line growth assay (SRB); settings: Homo sapiens; NSCLC, NCI-H226, 48 h
[8] = Human tumor cell line growth assay (SRB); settings: human, NCI-H226 cells (NSCLC), NCI-H226, 48 h, read-out: LC50
[9] = system: SF-539; assay: Human tumor cell line growth assay (SRB); settings: Homo sapiens; CNS, SF-539, 48 h
[10] = Human tumor cell line growth assay (SRB); settings: human, SF-539 cells (CNS), SF-539, 48 h, read-out: LC50
[11] = system: BT-549; assay: Human tumor cell line growth assay (SRB); settings: Breast, BT-549, 48 h; for CC50: read-out: LC50 (the source's name)
[12] = system: SF-268; assay: Human tumor cell line growth assay (SRB); settings: Homo sapiens; CNS, SF-268, 48 h
[13] = Human tumor cell line growth assay (SRB); settings: human, SF-268 cells (CNS), SF-268, 48 h
[14] = Human tumor cell line growth assay (SRB); settings: human, OVCAR-5 cells (ovarian), OVCAR-5, 48 h, read-out: LC50
[15] = system: OVCAR-5; assay: Human tumor cell line growth assay (SRB); settings: Homo sapiens; Ovarian, OVCAR-5, 48 h
[16] = system: Human tumor cell lines; assay: Human tumor cell line growth assay (SRB), summary over the panel; settings: overall over the panel
[17] = system: MDA-MB-435; assay: Human tumor cell line growth assay (SRB); settings: Homo sapiens; Melanoma, MDA-MB-435, 48 h
[18] = Human tumor cell line growth assay (SRB); settings: human, MDA-MB-435 cells (melanoma), MDA-MB-435, 48 h, read-out: LC50
[19] = system: PC-3; assay: Human tumor cell line growth assay (SRB); settings: Prostate, PC-3, 48 h; for CC50: read-out: LC50 (the source's name)
[20] = Human tumor cell line growth assay (SRB); settings: human, HOP-92 cells (NSCLC), HOP-92, 48 h
[21] = system: HOP-92; assay: Human tumor cell line growth assay (SRB); settings: Homo sapiens; NSCLC, HOP-92, 48 h
[22] = system: SK-OV-3; assay: Human tumor cell line growth assay (SRB); settings: Ovarian, SK-OV-3, 48 h; for CC50: read-out: LC50 (the source's name)
[23] = Human tumor cell line growth assay (SRB); settings: human, OVCAR-3 cells (ovarian), OVCAR-3, 48 h, read-out: LC50
[24] = system: OVCAR-3; assay: Human tumor cell line growth assay (SRB); settings: Homo sapiens; Ovarian, OVCAR-3, 48 h
[25] = system: HCC-2998; assay: Human tumor cell line growth assay (SRB); settings: Homo sapiens; Colon, HCC-2998, 48 h
[26] = Human tumor cell line growth assay (SRB); settings: human, HCC-2998 cells (colon), HCC-2998, 48 h, read-out: LC50
[27] = Human tumor cell line growth assay (SRB); settings: human, NCI-H460 cells (NSCLC), NCI-H460, 48 h, read-out: LC50
[28] = system: NCI-H460; assay: Human tumor cell line growth assay (SRB); settings: Homo sapiens; NSCLC, NCI-H460, 48 h
[29] = system: SK-MEL-28; assay: Human tumor cell line growth assay (SRB); settings: Homo sapiens; Melanoma, SK-MEL-28, 48 h
[30] = Human tumor cell line growth assay (SRB); settings: human, SK-MEL-28 cells (melanoma), SK-MEL-28, 48 h, read-out: LC50
[31] = Human tumor cell line growth assay (SRB); settings: human, NCI-H322M cells (NSCLC), read-out: LC50
[32] = system: NCI-H322M; assay: Human tumor cell line growth assay (SRB); settings: Homo sapiens, NSCLC, 48 h
[33] = system: MCF7; assay: Human tumor cell line growth assay (SRB); settings: Breast, MCF7, 48 h; for CC50: read-out: LC50 (the source's name)
[34] = system: EKVX; assay: Human tumor cell line growth assay (SRB); settings: Homo sapiens, NSCLC, 48 h
[35] = Human tumor cell line growth assay (SRB); settings: human, EKVX cells (NSCLC), read-out: LC50
[36] = Human tumor cell line growth assay (SRB); settings: human, UACC-62 cells (melanoma), UACC-62, 48 h, read-out: LC50
[37] = system: UACC-62; assay: Human tumor cell line growth assay (SRB); settings: Homo sapiens; Melanoma, UACC-62, 48 h

In the case of `Cc1cc2nc3c4cc([N+](=O)[O-])ccc4n(CCN(C)C)c3nc2cc1C` [JBA-185, 2-(2,3-dimethyl-9-nitro-6H-indolo[2,3-b]quinoxalin-6-yl)-N,N-dimethylethanamine], the GI50 [1] is reported as 1.57 µM, the CC50 [1] is reported as over 100 µM and the GI50 [2] is reported as 0.375 µM. It also gave a CC50 at 48 h [3] of over 100 µM, a GI50 [4] of 0.507 µM and a CC50 at 48 h [5] of over 100 µM. The GI50 [6] was 0.54 µM, the CC50 [6] was over 100 µM and the GI50 [7] was 0.521 µM. The CC50 at 48 h [8] was over 100 µM, the GI50 [9] was 0.387 µM and the CC50 at 48 h [10] was 18.1 µM. It also gave a GI50 [11] of 1.95 µM, a CC50 [11] of over 100 µM and a GI50 [12] of 0.793 µM. For the same compound, the LC50 (50% lethal concentration) at 48 h [13] was over 100 µM, the CC50 at 48 h [14] was over 100 µM and the GI50 [15] was 0.587 µM. The “cytotoxicity, comparison in words” value [16] was “less cytotoxic than B220”, the “growth inhibition (GI50), comparison in words” value [16] was “lower GI50 compared to B220” and the GI50 [17] was 0.541 µM. The CC50 at 48 h [18] was 4.5 µM, the GI50 [19] was 0.187 µM and the CC50 [19] was over 100 µM. The LC50 at 48 h [20] was over 100 µM, the GI50 [21] was 0.642 µM and the GI50 [22] was 0.704 µM. The CC50 [22] was over 100 µM, the CC50 at 48 h [23] was over 100 µM and the GI50 [24] was 0.59 µM. It also gave a GI50 [25] of 0.756 µM, a CC50 at 48 h [26] of 6.53 µM and a CC50 at 48 h [27] of 26.7 µM. It also gave a GI50 [28] of 0.35 µM, a GI50 [29] of 0.807 µM and a CC50 at 48 h [30] of 5.65 µM. It also gave a CC50 at 48 h [31] of over 100 µM, a GI50 [32] of 0.467 µM and a GI50 [33] of 0.356 µM. The CC50 [33] was over 100 µM, the GI50 [34] was 0.477 µM and the CC50 at 48 h [35] was over 100 µM. The CC50 at 48 h [36] was 5.78 µM and the GI50 [37] was 0.514 µM.

`COc1ccc2c(c1)c1nc3cc(C)c(C)cc3nc1n2CCN(C)C` [JBA-094, 2-(9-methoxy-2,3-dimethyl-6H-indolo[2,3-b]quinoxalin-6-yl)-N,N-dimethylethanamine] gave a GI50 [1] of 1.93 µM, a CC50 [1] of 78.7 µM and a GI50 [2] of 0.369 µM. The CC50 at 48 h [3] was 5.72 µM, the GI50 [4] was 1.19 µM and the CC50 at 48 h [5] was over 100 µM. The GI50 [6] was 1.01 µM, the CC50 [6] was 5.32 µM and the GI50 [7] was 1.24 µM. The CC50 at 48 h [8] was 8.2 µM, the GI50 [9] was 0.663 µM and the CC50 at 48 h [10] was 5.2 µM. The GI50 [11] was 1.65 µM, the CC50 [11] was 7.09 µM and the GI50 [12] was 1.33 µM. The LC50 (50% lethal concentration) at 48 h [13] was 8.23 µM, the CC50 at 48 h [14] was 5.28 µM and the GI50 [15] was 1.12 µM. The GI50 [17] was 1.11 µM, the CC50 at 48 h [18] was 6.03 µM and the GI50 [19] was 1.12 µM. For the same compound, the CC50 [19] was 5.84 µM, the LC50 at 48 h [20] was 6.08 µM and the GI50 [21] was 0.238 µM. For the same compound, the GI50 [22] was 1.5 µM, the CC50 [22] was 7.17 µM and the CC50 at 48 h [23] was 6.13 µM. The GI50 [24] was 1.26 µM, the GI50 [25] was 1.08 µM and the CC50 at 48 h [26] was 6.32 µM. The CC50 at 48 h [27] was 4.98 µM, the GI50 [28] was 0.388 µM and the GI50 [29] was 1.79 µM. The CC50 at 48 h [30] was 6.76 µM, the CC50 at 48 h [31] was 6.41 µM and the GI50 [32] was 0.778 µM. The GI50 [33] was 0.332 µM, the CC50 [33] was 4.79 µM and the GI50 [34] was 1.28 µM. For the same compound, the CC50 at 48 h [35] was 6.8 µM, the CC50 at 48 h [36] was 6.7 µM and the GI50 [37] was 0.898 µM.

Reference: patent US20230312578A1, “6H-INDOLO[2,3-B]QUINOXALINE DERIVATIVES USEFUL IN THERAPY” (Vironova Medical AB, priority 2020, published 2023)
